In patent publication US20250214966A1, “Crystalline Salt Form Of A SHP2 Inhibitor” (Array BioPharma Inc., priority 2022, published 2025):
Structures can show the parent of a compound that is named as a salt. Where two headings read alike, the source gives them in different places.

Legend:
Type in all cases: physicochemical
[1] = Solubility in buffers, HPLC of mother liquors (Tables 12 and 13); settings: for solubility at 25 h: 25 °C, thermodynamic from solid, read-out: Solubility Concentration
Procedure: Upon addition of the buffer solutions, the samples were vortexed. The samples were rotated at 40° C. for 8 hours, 15° C. for 5 hours, and 25° C. for 12 hours in an Envirogenie thermomixer. After the thermomixing cycle, the slurries were isolated by centrifugation filtration and the isolated mother liquors were analyzed by HPLC.
(§1) HPLC method (Tables 12 and 13): An Agilent 1290 UPLC instrument was used with a Waters XSelect HSS T3 Column (100 angstrom, 4.6×150 mm, 5 μm). The column temperature was set to 20° C., the UV wavelength set to 254 nm, the injection volume was 10 μL, with a flow rate of 1.0 mL/min. 10 mM Ammonium acetate adjusted to pH 4.8 was used as a mobile phase A, and acetonitrile was used as mobile phase B. The gradient method was set up to achieve 15% mobile phase B at 0 minutes, 95% mobile phase B at 17 minutes—held until 22 minutes, 15% mobile phase B at 22.1 minutes—held until 28 minutes.

[2] = Grinding assessment of form and crystallinity
[3] = Chemical stability (HPLC) after storage at 70° C.
Procedure: Sample Preparation (Table 12): Crystalline (S)-1′-(6-((2-amino-3-chloropyridin-4-yl)thio)-1,2,4-triazin-3-yl)-1,3-dihydrospiro[indene-2,4′-piperidin]-1-amine free base hemihydrate (Form 1)—Control: Compound (15.46 mg) was weighed into a 50 mL amber volumetric flask. Methanol (approximately 35 mL) was added to the flask, sonicated 4 minutes with intermittent swirling, equilibrated to room temperature, brought to volume with methanol and mixed well with repeated inversions of the flask. Crystalline (S)-1′-(6-((2-amino-3-chloropyridin-4-yl)thio)-1,2,4-triazin-3-yl)-1,3-dihydrospiro[indene-2,4′-piperidin]-1-amine free base hemihydrate (Form 1)—70° C./5% relative humidity (“RH”)/1 week: Compound (14.83 mg) was weighed into a 50 mL amber volumetric flask. Methanol (approximately 35 mL) was added to the flask, sonicated 4 minutes with intermittent swirling, equilibrated to room temperature, brought to volume with methanol and mixed well with repeated inversions of the flask. Crystalline (S)-1′-(6-((2-amino-3-chloropyridin-4-yl)thio)-1,2,4-triazin-3-yl)-1,3-dihydrospiro[indene-2,4′-piperidin]-1-amine free base hemihydrate (Form 1)—70° C./75% RH/1 week: Compound (14.99 mg) was weighed into a 50 mL amber volumetric flask. Methanol (approximately 35 mL) was added to the flask, sonicated 4 minutes with intermittent swirling, equilibrated to room temperature, brought to volume with methanol and mixed well with repeated inversions to the flask.
as §1, with “Chemical stability (HPLC) (Table 12): A Waters Acquity H-Class” for “HPLC method (Tables 12 and 13): An Agilent 1290 UPLC”, “ammonium” for “Ammonium”, “phase.” for “phase B at 22.1 minutes—held until 28 minutes.”
70° C./75% RH Sample: about 20 mg of crystalline anhydrous (S)-1′-(6-((2-amino-3-chloropyridin-4-yl)thio)-1,2,4-triazin-3-yl)-1,3-dihydrospiro[indene-2,4′-piperidin]-1-amine mono succinate salt Form 1 was placed in an open amber vial in the 70° C./75% RH chamber 70° C./5% RH Sample: about 20 mg crystalline anhydrous (S)-1′-(6-((2-amino-3-chloropyridin-4-yl)thio)-1,2,4-triazin-3-yl)-1,3-dihydrospiro[indene-2,4′-piperidin]-1-amine mono succinate salt Form 1 was placed in a closed amber vial with the cap taped in a 70° C. chamber with uncontrolled humidity […]

[4] = Dynamic vapor sorption, hygroscopicity (Tables 12 and 13); settings: DVS
Procedure: Dynamic Vapor Sorption (“DVS”) (Table 12): The microbalance was calibrated using a 100 mg standard weight. The relative humidity sensor was calibrated at 5.0, 11.3, 32.8, 52.8, 75.3, and 84.3% RH (25° C.) using saturated salt solutions, as well as 80% RH (25° C.) using polyvinylpyrrolidone. 8-10 mg of the powder sample was placed in the platinum sample pan. There is no drying step with this method. The RH is first maintained at 30% RH, then decreased to 10% RH, and then 3% RH using the criteria of moving on when the weight change of the sample was <0.001 wt % in 5 min or after reaching a maximum equilibration time of 60 minutes. […] Again, the attainment of equilibrium was assumed when the weight change of the sample was <0.001 wt % in 5 min or by a maximum equilibration time of 120 minutes.
DVS (Table 13): Water sorption and desorption were analyzed with a DVS-Resolution. The microbalance is calibrated with a 100 mg standard weight on a monthly basis. About 5 mg of API was added to a translucent sample pan and placed inside chamber A of the DVS-Resolution. Percent relative humidity was held at 0% for 1 hour, and increased to 90% in 10% increments, then ramped back to 0% in 10% increments.

SMILES: Nc1nccc(Sc2cnc(N3CCC4(CC3)Cc3ccccc3[C@H]4N)nn2)c1Cl [Example 3, (S)-1′-(6-((2-amino-3-chloropyridin-4-yl)thio)-1,2,4-triazin-3-yl)-1,3-dihydrospiro[indene-2,4′-piperidin]-1-amine Mono Succinate Salt Form 1]
- solubility at 25 h ([1]; Water, Final pH 5.01, Final XRD Succinate Form 1): 8180 µg/mL
- solubility at 25 h ([1]; pH 3 buffer, aqueous buffer, pH 3, Final pH 4.5, Final XRD Succinate Form 1): 4220 µg/mL
- solubility at 25 h ([1]; pH 4 acetate buffer, aqueous buffer, pH 4, Final pH 4.16, Final XRD Insufficient solids): 6400 µg/mL
- solubility at 25 h ([1]; pH 5 buffer, aqueous buffer, pH 5, Final pH 5.08, Final XRD Succinate Form 1): 4440 µg/mL
- solubility at 25 h ([1]; pH 6 phosphate buffer, aqueous buffer, pH 6, Final pH 5.37, Final XRD Freebase Form 1): 597 µg/mL
- solubility at 25 h ([1]; pH 7 buffer, aqueous buffer, pH 7, Final pH 6.81, Final XRD Insufficient solids): 17.1 µg/mL
- solubility at 25 h ([1]; pH 8 buffer, aqueous buffer, pH 8, Final pH 7.78, Final XRD Freebase Form 1): 2.66 µg/mL
- solubility at 25 h ([1]; pH 9 buffer, aqueous buffer, pH 9, Final pH 9.01, Final XRD Freebase Form 1): 0.18 µg/mL
- solubility at 25 h ([1]; pH 10 buffer, aqueous buffer, pH 10, Final pH 9.82, Final XRD Freebase Form 1): 0.17 µg/mL
- Grinding Assessment [2]: Reduction in crystallinity
- Chemical Stability (70° C./5% RH), decrease in purity [3]: 0.13% decrease in purity
- Chemical Stability (70° C./75% RH), decrease in purity [3]: 0.19% decrease in purity
- Hygroscopity [4]: not hygroscopic
- Hygroscopity, weight gain ([4]; up to 90% relative humidity): 0.9%

SMILES: Nc1nccc(Sc2cnc(N3CCC4(CC3)Cc3ccccc3[C@H]4N)nn2)c1Cl.Nc1nccc(Sc2cnc(N3CCC4(CC3)Cc3ccccc3[C@H]4N)nn2)c1Cl.O [Example 2, (S)-1′-(6-((2-amino-3-chloropyridin-4-yl)thio)-1,2,4-triazin-3-yl)-1,3-dihydrospiro[indene-2,4′-piperidin]-1-amine Free Base Hemihydrate (Form 1)]
- Solubility Concentration ([1]; Water, Final pH 9.19, Final XRD Additional peak at 8°): 0.24 µg/mL
- Solubility Concentration ([1]; pH 3, Final pH 4.51, Final XRD Freebase Form 1): 2044.85 µg/mL
- Solubility Concentration ([1]; pH 4, Final pH 5.12, Final XRD Freebase Form 1): 301.79 µg/mL
- Solubility Concentration ([1]; pH 5, Final pH 6.06, Final XRD Freebase Form 1): 58.53 µg/mL
- Solubility Concentration ([1]; pH 6, Final pH 6.95, Final XRD Freebase Form 1): 32.25 µg/mL
- Solubility Concentration ([1]; pH 7, Final pH 8.19, Final XRD Freebase Form 1): 10.05 µg/mL
- Solubility Concentration ([1]; pH 8, Final pH 9.13, Final XRD Insufficient solids): 0.56 µg/mL
- Solubility Concentration ([1]; pH 9, Final pH 10.2, Final XRD Insufficient solids): 0.26 µg/mL
- Solubility Concentration ([1]; pH 10, Final pH 3.94, Final XRD Insufficient solids): 0.45 µg/mL
- Grinding Assessment [2]: No change in form or crystallinity
- Chemical Stability (70° C./5% RH), decrease in purity ([3]; 70° C./5% RH, HPLC): 0.25% decrease in purity
- Chemical Stability (70° C./75% RH), decrease in purity ([3]; 70° C./75% RH, HPLC): 0.09% decrease in purity
- Hygroscopity [4]: Non-hygroscopic at 25 °C and exhibits less
